Columns and labels:
[1] = tested on: cultured human mast cells (CHMC); experiment: CHMC low cell density IgE activation: tryptase assay; format: cell-based
Summary of the method: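 Supernatant tryptase activity, assayed with substrate for 30 min at room temperature, served as the degranulation measure. Mast cells (1000-1500 per well depending on donor) sat 1 hr at 37° C in MT before a 30 min anti-IgE challenge at 37° C.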

[2] = tested on: B-cell line BJAB; experiment: BJAB (B-cell) toxicity, light scatter; format: cell-based; conditions: read-out: Toxicity BJAB Light Scat.
Protocol: The B-cell line BJAB was cultured in log phase in RPMI1640+10% heat-inactivated fetal bovine serum, 1× L-glutamine, 1× penicillin, 1× […] and 1× beta-mercaptoethanol at 37° C., 5% CO2. First, BJABs were harvested, spun and resuspended in culture medium to a concentration of 7.7×10^5 cells/mL. 65 uL cells were mixed with 65 uL compound, in duplicate and in the presence of 0.1% DMSO in a V-bottomed 96-well tissue culture plate. Cells were incubated with compound at various dilutions at 37° C., 5% CO2. Toxicity was assessed by flow cytometric analysis of cellular light scatter.

[3] = tested on: cultured human mast cells (CHMC); experiment: CHMC low cell density IgE activation: LTC4 assay; format: cell-based; conditions: anti-IgE activation, LTC4 release
Protocol: Pellet CHMC cells (980 rpm, 10 min) and resuspend in pre-warmed MT. Add 65 ul of cells to each 96-well plate. Depending on the degranulation activity for each particular CHMC donor, load 1000-1500 cells/well. Mix four times followed by a 1 hr incubation at 37° C. […] Stimulate cells by adding 25 ul of 6× anti-IgE solution to the appropriate plates. Add 25 ul MT to un-stimulated control wells. Mix twice following addition of the anti-IgE. Incubate at 37° C. for 30 minutes. […] Spin plates at 1000 rpm for 10 min to pellet cells. Transfer 25 ul of supernatant to a 96-well black bottom plate and add 100 ul of freshly diluted tryptase substrate solution to each well. Incubate plates at room temperature for 30 min.
Leukotriene C4 (LTC4) is also quantified using an ELISA kit on appropriately diluted supernatant samples (determined empirically for each donor cell population so that the sample measurement falls within the standard curve) following the supplier's instructions.

[4] = tested on: Human Jurkat T-cells (clone N); experiment: Jurkat T-cell activation (anti-TCR, CD69 upregulation); format: cell-based
Summary of the method: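 Readout is CD69 upregulation by flow cytometry (anti-CD69-APC, 20 min at 4 °C) after 20 h anti-TCR (C305, 500 ng/ml) stimulation at 37 °C.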

[5] = tested on: Jurkat cells; experiment: Jurkat (T-cell) toxicity, light scatter; format: cell-based, human; conditions: read-out: Toxicity Jurkat Light Scat.
Protocol: Dilute Jurkat cells to 2×10^5 cells/ml in complete RPMI (10% heat-inactivated fetal bovine serum) media and incubate at 37° C., 5% CO2 for 18 hours. Add 65 ul cells at 7.7×10^5 cells/ml to a 96-well V-bottom plate (TC-treated, Costar) containing 65 ul 2× compound (final vehicle concentration is 0.5% DMSO, 1.5% MeOH). Mix, incubate plates for 18-24 hr at 37° C., 5% CO2. Toxicity was assessed by flow cytometric analysis of cellular light scatter

[6] = tested on: cultured human mast cells (CHMC); experiment: CHMC low cell density ionomycin activation: tryptase assay; format: cell-based
[7] = tested on: basophil cells (human peripheral blood); experiment: Basophil anti-IgE activation: histamine release assay; format: cell-based; conditions: basophils, anti-IgE activation, histamine release; read-out: Basophils anti-IgE Histamine IC50
Protocol: (§1) The basophil activation assay was carried out using whole human peripheral blood from donors allergic to dust mites with the majority of the red blood cells removed by dextran sedimentation. Human peripheral blood was mixed 1:1 with 3% dextran T500 and RBCs were allowed to settle for 20-25min. The upper fraction was diluted with 3 volumes of D-PBS and cells were spun down for 10 min at 1500 rpm, RT. Supernatant was aspirated and cells were washed in an equal volume MT-buffer. Finally, cells were resuspended in MT-buffer containing 0.5% DMSO in the original blood volume. 80 uL cells were mixed with 20 uL compound in the presence of 0.5% DMSO, in triplicate, in a V-bottom 96-well tissue culture plate. A dose range of 8 compound concentrations was tested resulting in a 10-point dose response curve including maximum (stimulated) and minimum (unstimulated) response. […] The cells were stimulated for 30 minutes at 37° C., 5% CO2. The plate was spun for 10 min at 1500 rpm at room temperature and 80 uL the supernatant was harvested for histamine content analysis using the histamine ELISA kit supplied by Immunotech. The ELISA was performed according to supplier's instructions.

[8] = tested on: basophil cells (human peripheral blood); experiment: Basophil ionomycin activation: histamine release assay; format: cell-based; conditions: basophils, ionomycin activation, histamine release; read-out: Basophils Ionomycin Histamine IC50
Protocol: as §1
Assays for ionomycin-induced basophil cell degranulation were carried out as described for the Basophil IgE or Dustmite Activation Assay (Section 7.5.5, supra), with the exception that following incubation with compound, cells were stimulated with 20 μl of 2 μM ionomycin.

[9] = molecular target: T1, Syk kinase (Homo sapiens, UniProt P43405); experiment: Syk kinase biochemical fluorescence polarization assay; conditions: isolated Syk kinase, fluorescence polarization, 4 uM ATP
T1 construct: purchased Upstate, Lake Placid NY

[10] = Mouse Reverse Passive Arthus reaction (RPA reaction); format: in vivo, C57BL/6 mice; conditions: oral, 100 mg/kg
Protocol: In this model system, test compounds are administered at several timepoints prior to administration of Abs and Ags. A solution of rabbit anti-OVA IgG (50 μg in 25 μl/mouse) is injected intradermally, and immediately following is an intravenous injection of chicken egg albumin (20 mg/kg of body weight) in a solution containing 1% Evans blue dye. The degree of edema and hemorrhage is measured in the dorsal skin of C57BL/6 mice using the Evan's Blue dye as an indicator of local tissue damage. Purified polyclonal rabbit IgG is used as a control.
Pretreatment time, in which the test compounds are administered prior to Ab/Ag challenge, depends on the pharmacokinetic (PK) properties of each individual compound. Four hours after induction of Arthus reaction, mice are euthanized, and tissues are harvested for assessment of edema.

[11] = tested on: FcγRI-mediated degranulation; experiment: FcγRI-mediated degranulation (anti-human IgG Fab activation); format: cell-based; conditions: cells not primed with IgE, activated with rabbit anti-human IgG Fab fragment
[12] = tested on: Primary human B-cells; experiment: Primary B-cell activation (α-IgM, CD69 upregulation); format: cell-based; conditions: read-out: 1° B-Cell CD69 IC50
Protocol: Primary human B-cells were isolated from buffy coat, the white cell layer that forms between the red cells and the […] when anti-coagulated blood is centrifuged, or from fresh blood using CD19-Dynal® beads and a FACS. Buffy coat was obtained from the Stanford Medical School Blood Centre, prepared on the same day by the blood bank, stored and transported cold (with ice). The buffy coat (approx 35 mL) was placed in a 500 mL conical sterile centrifuge pot and cooled on ice, then diluted with cold PBS containing 0.2% BSA (Sigma: A7638) and sodium citrate (0.1%, Sigma: S-5570) (P—B—C) to a total volume of 200 mL and mixed gently. Fresh blood was collected from donors in 10 mL vacutainers containing heparin (1 vacutainer collects approximately 8.5 mL blood). The blood was cooled on ice, transferred into 50 mL falcon tubes (20 mL/tube) or a 500 mL conical sterile centrifuge pot, and diluted with an equal volume P—B—C.
25 mL diluted blood or buffy coat was layered onto 15 mL cold ficoll and placed back on ice. The ficoll layered blood was centrifuged (Beckman GS-6R) for 45 minutes at 2000 rpm, 4° C. to separate the Peripheral Blood Mononuclear Cells (PBMC) from the Red Blood Cells (RBC) and granulocytes. The top aqueous layer was then aspirated until 1 inch above the PBMC layer. The PBMCs were transferred from every 2 ficoll tubes into one clean 50 mL falcon tube (=approx 10 mL/tube). The transferred PBMCs were diluted 5× with icecold PBS with 0.2% BSA (P—B) and centrifuged for 20 min at 1400 rpm and 4° C. The supernatant (this may be cloudy) was then aspirated and the PBMCs resuspended into 25 mL P—B and the cells counted (using a 1:5 dilution) and kept on ice.
The cells were then positively selected using anti-CD 19 antibody coupled to magnetic beads (Dynal®) as per manufacturer's instructions. The approximate required amount of CD19-Dynal® beads (CD19-coated dyna beads M-450 (pabB), Dynal®) was calculated by estimating the number of B-cells as 5% of PBMCs counted and adding approximately10 beads per cell from the bead stock (4×10^8 beads/mL). The CD19-Dynal® beads were washed 2× in P—B in a 5 mL tube using the Dynal® magnet, then added into the suspended PBMCs. This mixture was then passed through the Dynal® magnet and washed several times to separate the bead-bound cells.
After separation, the beads and antibody were removed using Dynal® CD19-DETACHaBEAD® for 45 min at 30° C. Yield is typically 2×10^7 B-cells per buffy coat. B-cells were washed and resuspended as 1E6 cells/mL in RPMI1640+10% FBS+Penicillin/[…]+1 ng/mL IFNα8. Cells were rested overnight at 37° C. and 5% CO2.
The following day, cells were washed and resuspended in RPMI+2.5% FBS to 1×10^6 cells/mL. Cells were then aliquoted into a V-bottom 96-well plate (Corning) at 65 uL cells per well. By robot, 65 uL of a 2× compound was added to the cells with final concentration of DMSO at 0.2%, and incubated for 1 hr at 37° C. Cells were then stimulated with 20 uL 7.5× α-IgM from Jackson laboratories (final 5 ug/mL) for 24 hrs. At day 3, the cells were spun down and stained for CD69 and analyzed by FACS gated on the live cells (by light scatter).
Varied concentrations of compound were compared to solvent only to determine the inhibition of B-cell activation IC50 of each compound.

[13] = Low Density CHMC, anti-IgE activation, tryptase release, read-out: CHMC anti-IgE Tryptase IC50
[14] = Low Density CHMC, ionomycin activation, tryptase release, read-out: CHMC Ionomycin Tryptase IC50

Row | SMILES | IC50 [1, 13] [nM] | IC50 [3] [nM] | IC50 [4] [nM] | IC50 [6, 14] [nM] | IC50 [9] [nM] | IC50 [2] [nM] | IC50 [5] [nM] | inhibition of FcγRI-mediated degranulation [11] | other results
1 | CC(=O)Oc1cccc(Nc2ncc(F)c(Nc3cccc(OC(C)=O)c3)n2)c1 [Compound R926387] | 650 | 700 | 3850 | > 10000 | – | > 10000 | > 10000 | – | –
2 | Fc1cnc(Nc2ccc3c(c2)OC(F)(F)C(F)(F)O3)nc1Nc1ccc2c(c1)OC(F)(F)C(F)(F)O2 [Compound R926037] | – | – | > 10000 | – | – | – | – | – | IC50 [7]: > 10000 nM; IC50 [8]: > 10000 nM
3 | Fc1cnc(Nc2ccc3cn[nH]c3c2)nc1Nc1ccc(Cl)c(Cl)c1 [Compound R935372] | – | – | 30700 | – | 205 | – | – | inhibit FcγRI-mediated degranulation | % inhibition to vehicle control Edema Size ± SEM ([10]; pretreatment time 0.5 hrs): −0.6 ± 6.2%; Plasma Concentration ± SEM (ng/ml) Exposure = Pretreatment Time + 4 hours ([10]; pretreatment time 0.5 hrs + 4 hours): 0.6 ± 1 ng/mL; % inhibition to vehicle control Edema Size ± SEM ([10]; pretreatment time 1 hrs): 23.5 ± 7.4%; Plasma Concentration ± SEM (ng/ml) Exposure = Pretreatment Time + 4 hours ([10]; pretreatment time 1 hrs + 4 hours): 4.2 ± 4 ng/mL; % inhibition to vehicle control Edema Size ± SEM ([10]; pretreatment time 2 hrs): −4.4 ± 17.7%; Plasma Concentration ± SEM (ng/ml) Exposure = Pretreatment Time + 4 hours ([10]; pretreatment time 2 hrs + 4 hours): 52.65 ± 39 ng/mL
4 | Cc1cc(Nc2ncc(F)c(Nc3ccc4c(c3)NC(=O)C(F)(F)O4)n2)cc(Cl)c1O [Compound R926971] | – | – | – | – | 8 | – | – | inhibit FcγRI-mediated degranulation | IC50 ([1]; low cell density, read-out: CHMC anti-IgE Tryptase): 34 nM; IC50 ([6]; low cell density, read-out: CHMC Ionomycin Tryptase): > 10000 nM
5 | O=C1Nc2cc(Nc3ncc(F)c(Nc4ccc5c(c4)NC(=O)C(F)(F)O5)n3)ccc2OC1(F)F [Compound R940352] | – | – | 3530 | – | 130 | – | – | inhibit FcγRI-mediated degranulation | IC50 [12]: 876 nM

Now from value to compound, other results behind:

Row | IC50 [1, 13] [nM] | IC50 [3] [nM] | IC50 [4] [nM] | IC50 [6, 14] [nM] | IC50 [9] [nM] | SMILES | IC50 [2] [nM] | IC50 [5] [nM] | inhibition of FcγRI-mediated degranulation [11] | other results
6 | 500 | 250 | 954 | > 10000 | – | Oc1cccc(Nc2ccnc(Nc3cccc(O)c3)n2)c1 [Compound R926249] | > 10000 | > 10000 | – | –
7 | 850 | 280 | 1510 | > 10000 | – | Oc1cccc(Nc2nc(Nc3ccc4c(c3)OCCO4)ncc2Br)c1 [Compound R925797] | > 10000 | > 10000 | – | –
8 | 900 | 760 | 1540 | > 10000 | – | Cc1cnc(Nc2cccc(O)c2)nc1Nc1cccc(O)c1 [Compound R926248] | > 10000 | > 10000 | – | –
9 | 225 | 180 | 3400 | > 10000 | – | Oc1cccc(Nc2ncc(Br)c(Nc3cccc(O)c3)n2)c1 [Compound R925778] | > 10000 | > 10000 | – | –

Source: patent US8158621B2, “Methods of treating or preventing autoimmune diseases with 2,4-pyrimidinediamine compounds” (Rigel Pharmaceuticals, Inc., priority 2002, dated 2012)
